Assay: safe delivery concentration of PGG as a function of its purity
Details: PGG of the stated purity; toxic impurities gallic acid and methyl gallate
Text: The concentrations of PGG which may be safely delivered to a patient may be generally proportional to the purity of the PGG. For example, gallic acid, depicted in FIG. 1B, and methyl gallate, depicted in FIG. 1C, are common cytotoxic impurities which may be removed from a source batch of PGG during the purification process. Eliminating the presence of or reducing the concentration of toxic impurities from the delivered PGG may allow higher concentrations of the PGG to be delivered due to the mitigation of the toxic side effects of impurities commonly found in isolated PGG. For instance, studies have shown that substantially 100% pure PGG may be safely delivered at concentrations up to approximately 0.330% (w/v), 95% pure PGG may be safely delivered at concentrations up to approximately 0.125% (w/v), and 85% pure PGG may be safely delivered at concentrations up to approximately 0.06% (w/v). Delivery of PGG in higher concentrations may enhance the amount of uptake of PGG by the target tissue which may increase the efficacy of the PGG treatment. Delivery of PGG in higher concentrations may increase the rate of uptake of PGG by the tissue allowing the same amount of uptake in shorter delivery times. […]

Row | Substance | concentration up to which PGG may be safely delivered
1 | 1,2,3,4,6-pentagalloyl glucose [85% pure PGG] | ≤ 0.06 % (w/v)
2 | 1,2,3,4,6-pentagalloyl glucose [substantially 100% pure PGG] | ≤ 0.330 % (w/v)
